In patent US9206200B2, “N-linked lactam M1 receptor positive allosteric mogulators” (Merck Sharp & Dohme Corp., priority 2011, dated 2015):

Each compound was assayed against T1, acetylcholine muscarinic M1 receptor (Homo sapiens, UniProt P11229) (assay: muscarinic FLIPR assay: intracellular calcium in CHOnfat/hM1 cells, potentiation of EC20 acetylcholine). Conditions: M1 Pot., Table 2; CHOnfat/hM1 cells, FLIPR, EC20 acetylcholine (3 nM final).
T1 construct: expressed in transfected cells; host or cells: CHOnfat cells (CHO cells with an NFAT reporter) expressing hM1, kept under Geneticin selection
T1 sequence (P11229 1-460): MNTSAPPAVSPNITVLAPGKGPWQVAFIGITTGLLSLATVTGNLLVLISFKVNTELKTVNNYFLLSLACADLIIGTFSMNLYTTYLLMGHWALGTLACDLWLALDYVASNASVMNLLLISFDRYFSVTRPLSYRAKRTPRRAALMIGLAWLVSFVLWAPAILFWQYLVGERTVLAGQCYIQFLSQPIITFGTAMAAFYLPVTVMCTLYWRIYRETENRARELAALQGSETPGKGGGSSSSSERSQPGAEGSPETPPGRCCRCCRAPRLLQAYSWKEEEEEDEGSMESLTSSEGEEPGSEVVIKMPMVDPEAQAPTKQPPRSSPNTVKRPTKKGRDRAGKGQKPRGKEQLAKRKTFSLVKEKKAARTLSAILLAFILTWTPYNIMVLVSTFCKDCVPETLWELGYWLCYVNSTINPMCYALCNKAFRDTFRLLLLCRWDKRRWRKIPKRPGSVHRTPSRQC
Format: cell-based
How it was run: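 CHOnfat cells stably expressing human M1, Fluo-4AM-loaded, in HBSS with 20 mM HEPES, 2.5 mM probenecid, 1% BSA. Compounds preincubated 4 min (printed "4 mM") before an EC20 acetylcholine challenge (3 nM final). FLIPR intracellular Ca²⁺ signal compared with 3 nM acetylcholine alone to detect potentiation.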

**Q.** CC1CCN(Cc2cc3c(c4ncccc24)CN([C@H]2CCCC[C@@H]2O)C3=O)CC1 [Example 87, 8-[(1S,2S)-2-hydroxycyclohexyl]-5-[(4-methylpiperidin-1-yl)methyl]-8,9-dihydro-1H-pyrrolo[3,4-h]quinolin-7-one] was tested. Which EC50 did it give?
**A.** 200 nM

Same assay, conditions: Table 1; CHOnfat/hM1 cells, FLIPR, EC20 acetylcholine (3 nM final); read-out: M1 Pot.

**Q.** Which EC50 does the source give for N#CC1(c2ccccn2)CCN(Cc2cc3c(c4ccccc24)CN(C2CCOCC2)C3=O)CC1 [Example 54, 1-{[3-oxo-2-(tetrahydro-2H-pyran-4-yl)-2,3-dihydro-1H-benzo[e]isoindol-5-yl]methyl}-4-pyridin-2-ylpiperidine-4-carbonitrile] here?
**A.** 279 nM

**Q.** Which EC50 does the source give for O=C1c2cc(CN3CCC(F)(F)CC3)c3ccccc3c2CN1C1CCCCC1O (stereo not shown) [Example 25, 5-[(4,4-difluoropiperidin-1-yl)methyl]-2-(2-hydroxycyclohexyl)-1,2-dihydro-3H-benzo[e]isoindol-3-one] here?
**A.** 12 nM

**Q.** O=C1c2cc(CN3CCC(c4ccccc4)CC3)c3ccccc3c2CN1C1CCCCC1O (stereo not shown) [Example 41, 2-(2-hydroxycyclohexyl)-5-[(4-phenylpiperidin-1-yl)methyl]-1,2-dihydro-3H-benzo[e]isoindol-3-one] was tested. Which EC50 did it give?
**A.** 1400 nM

**Q.** With O=C1c2cc(CN3CC(O)C(F)C3)c3ccccc3c2CN1C1CCCCC1O (stereo not shown) [Example 28, 5-[(3-fluoro-4-hydroxypyrrolidin-1-yl)methyl]-2-(2-hydroxycyclohexyl)-1,2-dihydro-3H-benzo[e]isoindol-3-one] as the compound, how does the EC50 read?
**A.** 1200 nM

**Q.** Which EC50 does the source give for N#CC1(c2ccccc2)CCN(Cc2cc3c(c4ccccc24)CN([C@H]2CCCC[C@@H]2O)C3=O)CC1 [Example 56, 1-({2-[(1S,2S)-2-hydroxycyclohexyl]-3-oxo-2,3-dihydro-1H-benzo[e]isoindol-5-yl}methyl)-4-phenylpiperidine-4-carbonitrile] here?
**A.** 83 nM

**Q.** Which EC50 does the source give for N#CC1CCN(Cc2cc3c(c4ccccc24)CN([C@H]2CCCC[C@@H]2O)C3=O)CC1 [Example 20, 1-({2-[(1S,2S)-2-hydroxycyclohexyl]-3-oxo-2,3-dihydro-1H-benzo[e]isoindol-5-yl}methyl)piperidine-4-carbonitriIe] here?
**A.** 93 nM

**Q.** Which EC50 does the source give for CC1c2c(cc(CN3CCC(C#N)(c4ccccn4)CC3)c3ccccc23)C(=O)N1[C@H]1CCCC[C@@H]1O (single isomer, unassigned) [Example 45] here?
**A.** 272 nM

**Q.** For O=C1c2cc(CN3CCCC(F)C3)c3ccccc3c2CN1C1CCCCC1O (stereo not shown) [Example 17, 5-[(3-fluoropiperidin-1-yl)methyl]-2-(2-hydroxycyclohexyl)-1,2-dihydro-3H-benzo[e]isoindol-3-one], which EC50 is on record?
**A.** 320 nM

**Q.** N#CC1(c2ccccn2)CCN(Cc2cc3c(c4ccccc24)CN([C@@H]2CCCC[C@@H]2O)C3=O)CC1 [Example 47, 1-({2-[(1R,2S)-2-hydroxycyclohexyl]-3-oxo-2,3-dihydro-1H-benzo[e]isoindol-5-yl}methyl)-4-pyridin-2-ylpiperidine-4-carbonitrile] was tested. Which EC50 did it give?
**A.** 147 nM

**Q.** With Cn1cc(N2CCN(Cc3cc4c(c5ccccc35)CN(C3CCOCC3)C4=O)CC2)cn1 [Example 82, 5-{[4-(1-methyl-1H-pyrazol-4-yl)piperazin-1-yl]methyl}-2-(tetrahydro-2H-pyran-4-yl)-1,2-dihydro-3H-benzo[e]isoindol-3-one] as the compound, how does the EC50 read?
**A.** 1590 nM

**Q.** C=Cc1cccc(C2(C#N)CCN(Cc3cc4c(c5ccccc35)CN([C@H]3CCCC[C@@H]3O)C4=O)CC2)n1 [Example 49, 4-(6-ethenylpyridin-2-yl)-1-({2-[(1S,2S)-2-hydroxycyclohexyl]-3-oxo-2,3-dihydro-1H-benzo[e]isoindol-5-yl}methyl)piperidine-4-carbonitrile] was tested. Which EC50 did it give?
**A.** 114 nM

**Q.** How did the EC50 turn out when CC(=O)N1CCN(Cc2cc3c(c4ccccc24)CN(C2CCCCC2O)C3=O)CC1 (stereo not shown) [Example 14, 5-[(4-acetylpiperazin-1-yl)methyl]-2-(2-hydroxycyclohexyl)-1,2-dihydro-3H-benzo[e]isoindol-3-one] was run?
**A.** 2600 nM

**Q.** How did the EC50 turn out when CN1CCN(Cc2cc3c(c4ccccc24)CN([C@H]2CCCC[C@@H]2O)C3=O)CC1 [Example 12, 2-[(1S,2S)-2-hydroxycyclohexyl]-5-[(4-methylpiperazin-1-yl)methyl]-1,2-dihydro-3H-benzo[e]isoindol-3-one] was run?
**A.** 1300 nM

**Q.** Cc1ccnc(C2(C#N)CCN(Cc3cc4c(c5ccccc35)CN([C@H]3CCCC[C@@H]3O)C4=O)CC2)c1 [Example 64, 1-({2-[(1S,2S)-2-hydroxycyclohexyl]-3-oxo-2,3-dihydro-1H-benzo[e]isoindol-5-yl}methyl)-4-(4-methylpyridin-2-yl)piperidine-4-carbonitrile] was tested. Which EC50 did it give?
**A.** 9.7 nM

**Q.** O=C1c2cc(CN3CCN(c4cccnc4)CC3)c3ccccc3c2CN1[C@H]1CCCC[C@@H]1O [Example 76, 2-[(1S,2S)-2-hydroxycyclohexyl]-5-[(4-pyridin-3-ylpiperazin-1-yl)methyl]-1,2-dihydro-3H-benzo[e]isoindol-3-one] was tested. Which EC50 did it give?
**A.** 37 nM

Same assay, conditions: Table 2; CHOnfat/hM1 cells, FLIPR, EC20 acetylcholine (3 nM final); read-out: M1 Pot.

**Q.** CC1c2c(cc(CN3CCN(c4ccccc4)CC3)c3cccnc23)C(=O)N1C1CCCCC1O (stereo not shown) [Example 176, 8-(2-hydroxycyclohexyl)-9-methyl-5-[(4-phenylpiperazin-1-yl)methyl]-8,9-dihydro-7H-pyrrolo[3,4-h]quinolin-7-one] was tested. Which EC50 did it give?
**A.** 93 nM

**Q.** With CC1c2c(cc(CN3CCC(F)(C#N)CC3)c3cccnc23)C(=O)N1C1CCCCC1O (single isomer, unassigned) [Example 118, 4-fluoro-1-{[8-(2-hydroxycyclohexyl)-9-methyl-7-oxo-8,9-dihydro-7H-pyrrolo[3,4-h]quinolin-5-yl]methyl}piperidine-4-carbonitrile] as the compound, how does the EC50 read?
**A.** 450 nM

**Q.** With CCC1c2c(cc(CN3CCC(F)(F)CC3)c3cccnc23)C(=O)N1[C@@H]1CCCC[C@@H]1O (stereo partly drawn) [Example 105, 5-[(4,4-difluoropiperidin-1-yl)methyl]-9-ethyl-8-[(1R,2S)-2-hydroxycyclohexyl]-8,9-dihydro-7H-pyrrolo[3,4-h]quinolin-7-one] as the compound, how does the EC50 read?
**A.** 9.9 nM

**Q.** For CC1c2c(cc(CN3CCC(F)(F)CC3)c3cccnc23)C(=O)N1[C@@H]1CCOC[C@@H]1O (stereo partly drawn) [Example 107, 1,5-anhydro-3,4-dideoxy-3-{5-[(4,4-difluoropiperidin-1-yl)methyl]-9-methyl-7-oxo-7,9-dihydro-8H-pyrrolo[3,4-h]quinolin-8-yl}-D-erythro-pentitol], which EC50 is on record?
**A.** 12 nM

**Q.** For CC1c2c(cc(CN3CCN(c4ccc(F)cc4)CC3)c3cccnc23)C(=O)N1C1CCCCC1O (stereo not shown) [Example 173, 5-{[4-(4-fluorophenyl)piperazin-1-yl]methyl}-8-(2-hydroxycyclohexyl)-9-methyl-8,9-dihydro-7H-pyrrolo[3,4-h]quinolin-7-one], which EC50 is on record?
**A.** 100 nM

**Q.** For Cc1ccnc(C2(C#N)CCN(Cc3cc4c(c5ncccc35)CN(C3CCCCC3O)C4=O)CC2)c1 (stereo not shown) [Example 148, 1-{[8-(2-hydroxycyclohexyl)-7-oxo-8,9-dihydro-7H-pyrrolo[3,4-h]quinolin-5-yl]methyl}-4-(4-methylpyridin-2-yl)piperidine-4-carbonitrile], which EC50 is on record?
**A.** 4.7 nM

**Q.** For N#CC1(c2ccccn2)CCN(Cc2cc3c(c4ncccc24)CN([C@H]2CCCC[C@@H]2O)C3=O)CC1 [Example 145, 1-({8-[(1S,2S)-2-hydroxycyclohexyl]-7-oxo-8,9-dihydro-7H-pyrrolo[3,4-h]quinolin-5-yl}methyl)-4-pyridin-2-ylpiperidine-4-carbonitrile], which EC50 is on record?
**A.** 7.6 nM

**Q.** How did the EC50 turn out when Cn1cc(N2CCN(Cc3cc4c(c5ncccc35)CN([C@H]3CCCC[C@@H]3O)C4=O)CC2)cn1 [Example 157, 8-[(1S,2S)-2-hydroxycyclohexyl]-5-{[4-(1-methyl-1H-pyrazol-4-yl)piperazin-1-yl]methyl}-8,9-dihydro-7H-pyrrolo[3,4-h]quinolin-7-one] was run?
**A.** 42 nM

**Q.** Which EC50 does the source give for O=C1c2cc(CN3CCCC(F)(F)C3)c3cccnc3c2CN1C1CCCCC1O (stereo not shown) [Example 122, 5-[(3,3-difluoropiperidin-1-yl)methyl]-8-(2-hydroxycyclohexyl)-8,9-dihydro-7H-pyrrolo[3,4-h]quinolin-7-one] here?
**A.** 86 nM

Same assay, conditions: Table 3; inflection point calculated from the FLIPR values; EC20 acetylcholine (3 nM final); read-out: IP Value

**Q.** N#CC1(c2ccccn2)CCN(Cc2cc3c(c4ccccc24)CN([C@H]2CCCC[C@@H]2O)C3=O)CC1 [Example 1, 1-({2-[(1S,2S)-2-Hydroxycyclohexyl]-3-oxo-2,3-dihydro-1H-benzo[e]isoindol-5-yl}methyl)-4-(pyridine-2-yl)piperidine-4-carbonitrile] was tested. Which EC50 did it give?
**A.** 10 nM

**Q.** How did the EC50 turn out when Cc1cccc(C2(C#N)CCN(Cc3cc4c(c5ccccc35)CN([C@H]3CCCC[C@@H]3O)C4=O)CC2)n1 [Example 4, 1-({2-[(1S,2S)-2-Hydroxycyclohexyl]-3-oxo-2,3-dihydro-1H-benzo[e]isoindol-5-yl}methyl)-4-(6-methylpyridin-2-yl)piperidine-4-carbonitrile] was run?
**A.** 27 nM

**Q.** For CC1c2c(cc(CN3CCC(C#N)(c4ccccn4)CC3)c3ccccc23)C(=O)N1[C@H]1CCCC[C@@H]1O (stereo partly drawn) [Example 3, 1-({2-[(1S,2S)-2-Hydroxycyclohexyl]-1-methyl-3-oxo-2,3-dihydro-1H-benzo[e]isoindol-5-yl}methyl)-4-(pyridine-2-yl)piperidine-4-carbonitrile], which EC50 is on record?
**A.** 19 nM
